This passage reports IC50 results from patent US12344597B2, “Alkoxy-substituted pyridinyl derivatives as LPA1 receptor antagonists and their use in the treatment of fibrosis” (IDORSIA PHARMACEUTICALS LTD, priority 2018, dated 2025).

Each structure is given as a SMILES string.

For this test, the target named is human LPA1 receptor (Homo sapiens (Human), UniProt Q92633). The test is described as follows: Beta-arrestin recruitment assay to determine IC50 values for human LPAR1. It counts as cell-based. The settings on record: antagonist mode, Tango EDG2-bla U2OS cells, LPA 18:1 500 nM final. The source says:
Beta-Arrestin Recruitment Assay to Determine IC50 Values for Human LPAR1
The Tango™ EDG2-bla U2OS cells are obtained from Invitrogen. These cells contain the human LPA1 receptor cDNA linked to a TEV protease site and a Gal4-VP16 transcription factor integrated into the Tango™ GPCR-bla U2OS parental cell line. This parental cell line stably expresses a beta-arrestin/TEV protease fusion protein and the beta-lactamase (bla) reporter gene under the control of a UAS response element. Upon LPA (agonist) binding, LPA1 receptor gets activated, leading to arrestin-protease recruitment and proteolytic release of the transcription factor: The transcription factor then regulates transcription of a beta-lactamase reporter construct, which is measured upon addition of the live-cell substrate.
10′000 Tango™ EDG2-bla U2OS cells are seeded in a 384-well black with clear bottom plate in 30 μl Freestyle 293 Expression Medium (Invitrogen) and incubated for 20 h at 37° C., 5% CO2. […] IC50 is the concentration of antagonist inhibiting 50% of the maximal response.

Sequence of human LPA1 receptor (Q92633 whole entry): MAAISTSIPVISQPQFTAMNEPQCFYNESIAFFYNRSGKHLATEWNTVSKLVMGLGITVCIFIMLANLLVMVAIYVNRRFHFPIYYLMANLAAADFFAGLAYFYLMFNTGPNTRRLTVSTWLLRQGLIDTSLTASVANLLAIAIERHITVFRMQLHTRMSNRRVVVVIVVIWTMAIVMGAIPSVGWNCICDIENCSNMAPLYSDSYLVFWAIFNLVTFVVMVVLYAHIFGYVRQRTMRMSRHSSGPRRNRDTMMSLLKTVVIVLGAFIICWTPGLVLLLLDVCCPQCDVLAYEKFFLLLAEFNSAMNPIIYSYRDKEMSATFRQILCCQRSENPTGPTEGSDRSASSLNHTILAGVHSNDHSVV

`Cc1ccc(NC(=O)C2(c3ccccc3C(C)C)CN(CC3(C(=O)O)CC3)C2)c(OC(F)F)n1` [Ex 11-27, 1-((3-((2-(difluoromethoxy)-6-methylpyridin-3-yl)carbamoyl)-3-(2-isopropylphenyl)azetidin-1-yl)methyl)cyclopropane-1-carboxylic acid] returned an IC50 of 38 nM.

`COC(=O)CCCN1CC(C(=O)Nc2ccc(C)nc2OC(F)F)(c2ccccc2C(C)C)C1` [Ex 11-28, methyl 4-(3-((2-(difluoromethoxy)-6-methylpyridin-3-yl)carbamoyl)-3-(2-isopropylphenyl)azetidin-1-yl)butanoate] had an IC50 of 12 nM.

The compound `COC(=O)C(C)(C)CCN1CC(C(=O)Nc2ccc(C)nc2OC(F)F)(c2ccccc2C(C)C)C1` [Ex 11-30, methyl 4-(3-((2-(difluoromethoxy)-6-methylpyridin-3-yl)carbamoyl)-3-(2-isopropylphenyl)azetidin-1-yl)-2,2-dimethylbutanoate] showed an IC50 of 98 nM.

As for `CCOC(=O)CC(C)(C)CN1CC(C(=O)Nc2ccc(C)nc2OC(F)F)(c2ccccc2C(C)C)C1` [Ex 11-32, ethyl 4-(3-((2-(difluoromethoxy)-6-methylpyridin-3-yl)carbamoyl)-3-(2-isopropylphenyl)azetidin-1-yl)-3,3-dimethylbutanoate], half-maximal inhibition (IC50) required 805 nM.

Compound `Cc1ccc(NC(=O)C2(c3ccccc3C(C)C)CN(CC(C)(C)CC(=O)O)C2)c(OC(F)F)n1` [Ex 11-33, 4-(3-((2-(difluoromethoxy)-6-methylpyridin-3-yl)carbamoyl)-3-(2-isopropylphenyl)azetidin-1-yl)-3,3-dimethylbutanoic acid] gave a half-maximal inhibitory concentration (IC50) of 8 nM.

With `CCOC(=O)c1cc(CN2CC(C(=O)Nc3ccc(C)nc3OC(F)F)(c3ccccc3C(C)C)C2)on1` [Ex 11-34, ethyl 5-((3-((2-(difluoromethoxy)-6-methylpyridin-3-yl)carbamoyl)-3-(2-isopropylphenyl)azetidin-1-yl)methyl)isoxazole-3-carboxylate], the IC50 turned out to be 79 nM.

Take `Cc1ccc(NC(=O)C2(c3ccccc3C(C)C)CN(Cc3cc(C(=O)O)no3)C2)c(OC(F)F)n1` [Ex 11-35, 5-((3-((2-(difluoromethoxy)-6-methylpyridin-3-yl)carbamoyl)-3-(2-isopropylphenyl)azetidin-1-yl)methyl)isoxazole-3-carboxylic acid]: the IC50 amounted to 43 nM.

In the case of `Cc1ccc(NC(=O)C2(c3ccccc3C(C)C)CN(Cc3ccno3)C2)c(OC(F)F)n1` [Ex 11-36, N-(2-(difluoromethoxy)-6-methylpyridin-3-yl)-3-(2-isopropylphenyl)-1-(isoxazol-5-ylmethyl)azetidine-3-carboxamide], 9 nM corresponded to half-maximal inhibition (IC50).

Consider `COC(=O)c1n[nH]cc1CN1CC(C(=O)Nc2ccc(C)nc2OC(F)F)(c2ccccc2C(C)C)C1` [Ex 11-37, methyl 4-((3-((2-(difluoromethoxy)-6-methylpyridin-3-yl)carbamoyl)-3-(2-isopropylphenyl)azetidin-1-yl)methyl)-1H-pyrazole-3-carboxylate], for which the IC50 came to 6 nM.

`Cc1ccc(NC(=O)C2(c3ccccc3C(C)C)CN(Cc3c[nH]nc3C(=O)O)C2)c(OC(F)F)n1` [Ex 11-38, 4-((3-((2-(difluoromethoxy)-6-methylpyridin-3-yl)carbamoyl)-3-(2-isopropylphenyl)azetidin-1-yl)methyl)-1H-pyrazole-3-carboxylic acid] registered an IC50 of 270 nM.

As for `CCOC(=O)c1c[nH]nc1CN1CC(C(=O)Nc2ccc(C)nc2OC(F)F)(c2ccccc2C(C)C)C1` [Ex 11-39, ethyl 3-((3-((2-(difluoromethoxy)-6-methylpyridin-3-yl)carbamoyl)-3-(2-isopropylphenyl)azetidin-1-yl)methyl)-1H-pyrazole-4-carboxylate], the IC50 was 10 nM.

In turn, `Cc1ccc(NC(=O)C2(c3ccccc3C(C)C)CN(Cc3n[nH]cc3C(=O)O)C2)c(OC(F)F)n1` [Ex 11-40, 3-((3-((2-(difluoromethoxy)-6-methylpyridin-3-yl)carbamoyl)-3-(2-isopropylphenyl)azetidin-1-yl)methyl)-1H-pyrazole-4-carboxylic acid] showed an IC50 of 270 nM.

`COC(=O)Cn1cccc1CN1CC(C(=O)Nc2ccc(C)nc2OC(F)F)(c2ccccc2C(C)C)C1` [Ex 11-41, methyl 2-(2-((3-((2-(difluoromethoxy)-6-methylpyridin-3-yl)carbamoyl)-3-(2-isopropylphenyl)azetidin-1-yl)methyl)-1H-pyrrol-1-yl)acetate]: the IC50 turned out to be 67 nM.

`Cc1ccc(NC(=O)C2(c3ccccc3C(C)C)CN(Cc3cccn3CC(=O)O)C2)c(OC(F)F)n1` [Ex 11-42, 2-(2-((3-((2-(difluoromethoxy)-6-methylpyridin-3-yl)carbamoyl)-3-(2-isopropylphenyl)azetidin-1-yl)methyl)-1H-pyrrol-1-yl)acetic acid] came in with an IC50 of 43 nM.

`COC(=O)c1ccc(CN2CC(C(=O)Nc3ccc(C)nc3OC(F)F)(c3ccccc3C(C)C)C2)[nH]1` [Ex 11-43, methyl 5-((3-((2-(difluoromethoxy)-6-methylpyridin-3-yl)carbamoyl)-3-(2-isopropylphenyl)azetidin-1-yl)methyl)-1H-pyrrole-2-carboxylate] gave an IC50 of 310 nM.

Compound `Cc1ccc(NC(=O)C2(c3ccccc3C(C)C)CN(Cc3ccc(C(=O)O)[nH]3)C2)c(OC(F)F)n1` [Ex 11-44, 5-((3-((2-(difluoromethoxy)-6-methylpyridin-3-yl)carbamoyl)-3-(2-isopropylphenyl)azetidin-1-yl)methyl)-1H-pyrrole-2-carboxylic acid] registered an IC50 of 5 nM.

`COC(=O)c1cccc(CN2CC(C(=O)Nc3ccc(C)nc3OC(F)F)(c3ccccc3C(C)C)C2)n1` [Ex 11-45, methyl 6-((3-((2-(difluoromethoxy)-6-methylpyridin-3-yl)carbamoyl)-3-(2-isopropylphenyl)azetidin-1-yl)methyl)picolinate]: half-maximal inhibition (IC50) required 64 nM.

`Cc1ccc(NC(=O)C2(c3ccccc3C(C)C)CN(Cc3cccc(C(=O)O)n3)C2)c(OC(F)F)n1` [Ex 11-46, 6-((3-((2-(difluoromethoxy)-6-methylpyridin-3-yl)carbamoyl)-3-(2-isopropylphenyl)azetidin-1-yl)methyl)picolinic acid] showed an IC50 of 17 nM.

For the compound `Cc1ccc(NC(=O)C2(c3ccccc3C(C)C)CN(Cc3ncco3)C2)c(OC(F)F)n1` [Ex 11-47, N-(2-(difluoromethoxy)-6-methylpyridin-3-yl)-3-(2-isopropylphenyl)-1-(oxazol-2-ylmethyl)azetidine-3-carboxamide], it took 41 nM to reach half-maximal inhibition (IC50).

The compound `COC(=O)Cn1cc(CN2CC(C(=O)Nc3ccc(C)nc3OC(F)F)(c3ccccc3C(C)C)C2)nn1` [Ex 11-48, methyl 2-(4-((3-((2-(difluoromethoxy)-6-methylpyridin-3-yl)carbamoyl)-3-(2-isopropylphenyl)azetidin-1-yl)methyl)-1H-1,2,3-triazol-1-yl)acetate] came in with an IC50 of 304 nM.

On to `Cc1ccc(NC(=O)C2(c3ccccc3C(C)C)CN(Cc3cn(CC(=O)O)nn3)C2)c(OC(F)F)n1` [Ex 11-49, 2-(4-((3-((2-(difluoromethoxy)-6-methylpyridin-3-yl)carbamoyl)-3-(2-isopropylphenyl)azetidin-1-yl)methyl)-1H-1,2,3-triazol-1-yl)acetic acid], for which the IC50 is 547 nM.
